{"source": "patent US20170363637A1", "about": "“Method and Kit for Determining Risk of Preterm Birth and/or Birth of Low-Birth-Weight Baby” (HIROSHIMA UNIVERSITY, priority 2014, published 2017)", "key": {"HTR-8 cells [1]": {"test_system": "HTR-8 cells", "assay": "TNF-α stimulation of HTR-8 cells, Gal-3 production", "type": "cell-based, human", "conditions": "10 ng/ml rhTNF-α; 2 days post-stimulation; P<0.01", "method": "Gal-3 protein levels in the cell culture supernatants were analyzed by Human Galectin-3 Immunoassay (R&D Systems) as the manufacturer recommended. Statistical differences among the experimental groups were evaluated by analysis of T test using GraphPad Prism (version 6.0c, CA, USA) with the level of significance set at P<0.01**.\nEffect of TNF-α, which is produced by P.g.-LPS stimulation, on Gal-3 production was studied.\nRecombinant human TNF-α (rhTNF-α, purchased from R&D Systems (Minneapolis, Minn., USA)) was applied at 10 ng/ml to HTR-8 cells for 1, 2 or 3 days and the Gal-3 protein levels in the culture media were measured. The cell culture and measurement of the Gal-3 protein levels were performed in the same manner as in Example 6."}, "HTR-8 cells [2]": {"test_system": "HTR-8 cells", "assay": "Effect of Gal-3 inhibitor on human placenta cell line stimulated with P.g.-LPS (Western-blotting)", "type": "cell-based", "method": "Human trophoblast cell line—HTR-8/Svneo cells were kindly gifted from Prof. Charles H. Graham (Queen's University, Canada). The cells were grown in RPMI 1640 media (Nissui Pharmaceutical Co., Tokyo, Japan) supplemented with 10% heat-inactivated FBS (Invitrogen) and 100 Uml penicillin-streptomycin (Gibco, Tokyo, Japan). For the experiments, cells were seeded at a density of 5×10^5 cells in 35 mm culture dishes. The cells were maintained at 37° C. in a normal atmosphere containing 5% CO2. The cells were stimulated by 1 μg/ml of P.g.-LPS (Invivogen, SanDiego, Calif., USA), expression of Gal-3 mRNA and Gal-3 levels in the culture media were measured at one, two, or three days after the stimulation.\nHTR-8 cells were stimulated with P.g.-LPS (1 μg/ml) and N-Lac (10^−9 M and 10^−8 M), and the expression levels of Gal-3, TNF-α, COX-2 and IL-8 in the culture supernatants were measured by RT-PCR and Western-blotting."}, "[3]": {"test_system": "placental tissues of P.g.-infected mice", "assay": "Histological and immunohistochemical observation of placental tissues at gestational age of 17 days", "type": "in vivo, mouse", "conditions": "placenta at gestational age of 17 days; P.g./N-Lac group vs P.g. group", "method": "Immunohistochemical staining was performed in a conventional manner. As PMNL markers, MCA771GA (rat anti-neutrophils antibody, purchased from AbD Serotec (Raleigh, N.C., USA), 1:5000), rabbit monoclonal anti-COX-2 antibody (purchased from Cell Signaling Technology (Danvers, Mass., USA), 1:100), goat anti-TNF-α antibody (purchased from Santa Cruz Biotechnology, Inc. (Santa Cruz, Calif., USA), 1:50), and rat anti-galectin-3 antibody (purchased from BioLegend, Inc (San Diego, Calif., USA), 1:500) were used. A high polymer method (Histofine Max-PO; Nichirei Biosciences) was used for immunohistochemical staining of the markers. Specificity of the antibodies was ascertained by substituting PBS/serum for each antibody.\n8-wks-old female C57Bl/6J mice were infected with P.g. w83 strain via the pulp chambers of the first molars. After periapical granuloma, which serves as a persistent source of P.g., was established at 6wks post-infection, mating was started (P.g. group). A half of the mice in P.g. group was intraperitoneally administered with 5 mg/kg of N-Lac (Sigma-Aldrich) at the gestational ages of 12, 15 and 18 days (P.g./N-Lac group). Healthy pregnant mice without P.g. infection were used as a control (NC group). The gestational period was compared among the groups. […]"}, "[4]": {"test_system": "C57Bl/6J mice infected with P.g. w83 strain", "assay": "Effect of Gal-3 inhibitor on preterm birth induced by dental infection of P.g. (gestational period)", "type": "in vivo, mouse", "conditions": "5 mg/kg N-Lac intraperitoneally at gestational ages of 12, 15 and 18 days", "method": "Effect of a Gal-3 inhibitor, N-acetyllactosamine (N-Lac), on preterm birth induced by dental infection of P.g. was studied.\n8-wks-old female C57Bl/6J mice were infected with P.g. w83 strain via the pulp chambers of the first molars. After periapical granuloma, which serves as a persistent source of P.g., was established at 6wks post-infection, mating was started (P.g. group). A half of the mice in P.g. group was intraperitoneally administered with 5 mg/kg of N-Lac (Sigma-Aldrich) at the gestational ages of 12, 15 and 18 days (P.g./N-Lac group). Healthy pregnant mice without P.g. infection were used as a control (NC group). The gestational period was compared among the groups. At the gestational age of 17 days the placental tissues were harvested, and inflammatory cell infiltration (MΦ, neutrophils), damage of endothelial cells (CD31), and immunolocalization of factors promoting delivery (TNF-α, COX-2, and Gal-3) were compared among the groups."}, "[5]": {"conditions": "P.g.-LPS 1 μg/ml and N-Lac (10^−9 M and 10^−8 M)"}}, "data": [{"compound": "TNF-α", "values": [{"measurement": "Gal-3 protein level in culture media", "setting": "HTR-8 cells [1]", "value": "significant increased"}]}, {"compound": "CC(=O)N[C@H]1C(O)O[C@H](CO)[C@@H](O[C@@H]2O[C@H](CO)[C@H](O)[C@H](O)[C@H]2O)[C@@H]1O", "note": "(some centres unmarked) [N-Lac, N-acetyllactosamine]", "values": [{"measurement": "Gal-3 expression upregulated by the P.g.-LPS stimulation", "setting": "HTR-8 cells [2]; [5]", "value": "remarkably reduced"}, {"measurement": "TNF-α expression upregulated by the P.g.-LPS stimulation", "setting": "HTR-8 cells [2]; [5]", "value": "remarkably reduced"}, {"measurement": "expression of TNF-α", "setting": "HTR-8 cells [2]; incubation with N-Lac (10^−9 M and 10^−8 M)", "value": "suppressed"}, {"measurement": "decrease of CD31 and expression of TNF-α, COX-2 and Gal-3 in placenta", "setting": "[3]", "value": "improved"}, {"measurement": "denature and detachment of the amnion membrane, denature and necrosis of the placenta, increase of inflammatory cell infiltration", "setting": "[3]", "value": "not observed"}, {"measurement": "preterm birth induced by P.g.", "setting": "[4]; p<0.05", "value": "significantly suppressed preterm birth"}, {"measurement": "average gestational period", "setting": "[4]; P.g./N-Lac group, NC 20, P.g. 18.3", "value": 20.7, "unit": "days"}]}]}
